Reference: patent publication US12551458B2, “Topical pharmaceutical composition containing phospholipids” (EGIS GYÓGYSZERGYÁR ZRT., priority 2021, dated 2026)

What was measured:
[1] = system: neuropathic pain in a human patient; details: topical aqueous solution; cited from earlier work
[2] = Pharmacokinetic studies in rats (blood levels of pregabalin)
[3] = Solubility of pregabalin in solvents; details: any solvents
[4] = system: allodynia in nerve-ligated mice; details: cited from earlier work
[5] = system: CCI operated paw of rats (neuropathic pain); assay: Rat chronic constriction injury (CCI) model, paw withdrawal threshold with electronic von Frey device; format: in vivo, Wistar rats; details: oral 16.66 mg/kg
Description: Furthermore, based on the article Bennett G J, at al (Pain., A peripheral mononeuropathy in rat that produces disorders of pain sensation like those seen in man. 1988 April; 33(1):87-107) we have developed a method for the examination of the compositions of the present invention. Thus, we have examined the compositions according to the present invention also with a different model for measuring the alleviation of the peripheral neuropathic pain also. Namely, we have carried out examinations on rats using Chronic constriction injury (CCI) model. Three weeks following nerve injury rats were assessed for hind paw mechanical withdrawal thresholds. The paw withdrawal threshold (PWT) was determined with an Electronic von Frey device according to the modified up-down method of Dixon (Efficient analysis of experimental observations., Annu Rev Pharmacol Toxicol. 1980; 20:441-62). […] The method and results are shown in example 3 and on FIG. 9.
Briefly, under isoflurane anesthesia small blunt dissection was made into the skin of rat right thigh then three loosely constrictive ligatures were placed around common sciatic nerve (chronic constriction injury CCI). Three weeks following nerve injury rats were assessed for hind paw mechanical withdrawal thresholds. […]

pain = details: compositions containing 1 and 3% of pregabalin; cited from earlier work

In the case of `CC(C)C[C@H](CN)CC(=O)O` [pregabalin], the “Time for which neuropathic pain was reduced” value [1] is listed as 6 h, the “Blood levels after oral administration” value ([2]; oral 16.66 mg/kg) is listed as “relatively high blood levels” and the “Amount entering the bloodstream during topical treatment” value ([2]; topical treatment) is listed as “very small amounts”. The Solubility [3] was “poor”, the “Time of maximum allodynia alleviating effect” value ([4]; topical 2.5% aqueous solution without other ingredients) was 1 h and the “Alleviating effect after 3 hours and 6 hours” value ([4]; topical 2.5% aqueous solution) was “essentially disappeared”. The “Reduction of hypersensitivity after oral administration” value [5] was “not able to reduce hypersensitivity” and the “Time after which the pain alleviation effect decreased” value (pain) was 1.5 to 2 h.
